In PubChem BioAssay (NCI) one finds TGI and GI50 data, which are given here for 18 compounds.

What all share (test): NCI tumour cell line growth inhibition, 48 h
Test [1] concerns LXFL 529 NSCLC.
Test [2] relates to A498 renal.
Test [3] has as its system COLO 205 colon.
For test [4], the system named is SNB-78 CNS.
Test [5] deals with SNB-75 CNS.
Test [6] relates to SW-620 colon.
The subject of test [7] is K-562 leukemia.
Test [8] concerns DU-145 prostate.
Test [9] concerns PC-3 prostate.
Test [10] deals with MCF7 breast.

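In this assay, cells in 96-well plates receive the compound at five concentrations for 48 hours. Endpoints are linearly interpolated between the surrounding concentrations. GI50 marks 50% less growth. Definition used: TGI = concentration required for complete inhibition of growth.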

Turning to `C[S+](C)CCOC(=O)C(=[N+]=[N-])c1ccc([N+](=O)[O-])cc1`, the TGI in test [1], in test [2], in test [3], in test [4], in test [5] and in test [6] was more than 100 µM each time. Moreover, in [7], the TGI is more than 100 µM.
For `N#Cc1c(NN)nc(NN)c(C#N)c1-c1ccccc1`, the TGI in test [1], in [2], in test [3], in [4], in test [5] and in test [6] was more than 100 µM each time. The compound further displayed a TGI in test [7] of more than 100 µM.
Regarding `CCCCCC/C=C1\CCC(CN2CCCC2)C1=O` (stereo unspecified), the TGI in [1] is 11.4 µM; in test [2] it was 38.4 µM; in [3], 36.3 µM; in test [4], 60.2 µM; in [5] it was 38.3 µM; in test [6], more than 59.4 µM. The TGI in test [7] was found to be 12.6 µM.
For the compound `Oc1ccccc1C=NCc1ccco1`, the TGI in test [1], in test [2], in [4], in [5], in test [6] and in test [7] was more than 100 µM each time.
For `Clc1ccc2c(c1)C1C(CO2)C(c2ccccc2)=NN1c1ccccc1` (stereo unspecified), the TGI was more than 100 µM in test [1]; more than 100 µM in test [2]; more than 100 µM in test [3]; more than 100 µM in [4]; 82.9 µM in [5]; more than 100 µM in [6]. In test [7], this compound returned a TGI of 93.8 µM.
For `CC(=O)OC1COC(Nc2ccc(C(C)=O)cc2)C(OC(C)=O)C1OC(C)=O` (stereo unspecified), the TGI in test [1], in [2], in test [3], in test [4], in test [5] and in test [6] was more than 100 µM in each case. Besides, the TGI in test [7] is more than 100 µM.
As for `CCC/C(=N/NC(=O)C(N)=O)C(CC)C(=O)CCC(=O)N(Cc1ccccc1)Cc1ccccc1` (stereo unspecified), the TGI in test [1], in test [2], in test [3], in test [4], in [5] and in test [6] was more than 100 µM each time. This compound also had a TGI in test [7] of more than 100 µM.
With `CCC1(c2c(F)c(F)c(N)c(F)c2F)CCC(=O)NC1=O` (stereo unspecified), the TGI in test [1], in test [2], in test [3], in [4], in [5] and in test [6] was more than 100 µM throughout. This compound returned a TGI in test [7] of more than 100 µM.
On to `O=C1NC(=O)C2C(=O)NC(=O)C1C2(c1ccccc1)c1cc[nH]c1` (stereo unspecified), for which the TGI in test [1], in [2], in test [3], in test [4], in test [5] and in test [6] was more than 100 µM each time. This compound displayed a TGI in test [7] of more than 100 µM.
For the compound `N[C@@H]1CCCC[C@H]1N.O=C([O-])C(=O)[O-].[Pt+4]`, the GI50 in test [1] was 2.36 µM; in [8] it was 6.17 µM; in test [2] it was 4.85 µM; in test [3] it was 7.73 µM; in [9], 17.9 µM; in test [4] it was 19.8 µM. In addition, the GI50 in test [5] is 18.5 µM; in [6], 0.0468 µM; in test [7] it was 0.854 µM; in test [10], 0.224 µM. Moreover, the TGI was more than 100 µM in test [1]; more than 100 µM in test [8]; 32.7 µM in test [2]; more than 74.8 µM in [3]; more than 100 µM in test [9]; more than 100 µM in [4]. Also, the TGI in test [5] was more than 100 µM; in test [6], more than 83.7 µM; in test [7], more than 95.3 µM; in [10], 6.63 µM.
`COC(=O)C(=O)OC1(C(C)=O)CC2(c3ccccc3)OC1(c1ccccc1)c1ccccc12` (stereo unspecified): the TGI was determined as 49.2 µM in [1]; 33.4 µM in test [2]; 29.5 µM in test [3]; 65 µM in test [4]; 61.5 µM in test [5]; 30.3 µM in test [6]. In test [7], this compound came in with a TGI of more than 100 µM.
With `Clc1cc(Cc2cc(Cl)c(Cl)c3c2OCOC3)c2c(c1Cl)COCO2`, the TGI was more than 100 µM in test [1]; 80.4 µM in test [2]; more than 100 µM in test [3]; more than 100 µM in [4]; 52.3 µM in [5]; more than 100 µM in test [6]. The compound further gave a TGI in [7] of more than 100 µM.
Consider `COc1cccc(NC(=O)/C(CC(=O)CC(c2ccccc2)c2c(O)c3ccccc3oc2=O)=N\NC(C)(C)C)c1OC` (stereo unspecified), for which the TGI in test [1], in [2], in [3], in test [4], in test [5] and in test [6] was more than 100 µM throughout. The same compound displayed a TGI in test [7] of more than 100 µM.
As to `CC1(c2cccc3ccccc23)OC(=O)c2ccccc21` (stereo unspecified), the TGI in [1] is more than 100 µM; in [2], 68.3 µM; in test [3], 29.8 µM; in [4] it was more than 100 µM; in [5] it was 46 µM; in [6], 68.2 µM. In test [7], the TGI is 65.8 µM.
Turning to `COC(=O)/C([Se]c1c(C)cc(C)cc1C)=C(\[Se]c1c(C)cc(C)cc1C)C(=O)OC`, the TGI in test [1], in test [2], in test [3], in test [4], in [5] and in test [6] was more than 100 µM throughout. For the same compound, the TGI in [7] was more than 100 µM.
Take `CCOC(=O)N1CCc2cc(OC)c(OC)c3c2c1cc1cc(OC)c(OC)cc13`: the TGI in test [1] was more than 100 µM; in test [8], more than 100 µM; in test [2], 14.7 µM; in test [3], 9.06 µM; in test [9], more than 100 µM; in [4], more than 100 µM. For the same compound, the TGI in [5] is 8.4 µM; in [6], 81.1 µM; in test [7] it was more than 75.9 µM; in [10], 32.8 µM.
`BrC1=CC=C2NC=CC3=CC=NC1C32` (stereo unspecified): the TGI in test [1] was more than 70 µM; in test [2], 85.4 µM; in test [3] it was 58.5 µM; in [4] it was more than 100 µM; in [5], 98.9 µM; in [6] it was more than 60.6 µM. The TGI in test [7] was 52.8 µM.
Take `CCCCCCCCCCCCCC(=O)CC(=O)c1c(O)cccc1O`: the TGI is more than 100 µM in [1]; more than 100 µM in [2]; 55.1 µM in test [3]; 75.5 µM in test [4]; more than 100 µM in test [5]; 50.2 µM in test [6]. For the same compound, in test [7], the TGI amounted to 48.2 µM.
